Experimental data as given in patent US7667044B2, “Compounds for the treatment of neurological disorders” (Probiodrug AG, priority 2003, dated 2010).

Tests used:
human glial U-343 cells = assay: IL-6 ELISA, basal secretion of IL-6 into conditioned medium; assay type: cell-based; conditions: inhibitor 20 μM, 24 hours, serum-free medium, untreated = 100%, read-out: Extracellular IL-6 concentration, % of untreated cells
Procedure: To analyze basal secretion of IL-6, human glial U-343 cells were cultured in 6 well plates (1.5×10^6 cells/well, Greiner) and treated with specific PEP inhibitors as indicated (20 μM each) for 24 hours in serum-free D-MEM medium (invitrogen). Aliquots of 40 μl conditioned medium were used to quantify the amount of secreted IL-6 by an human-specific IL-6 ELISA (Biosource) following the manufacturer's instructions. All data were obtained in quadruplicate. For the calculation of the IL-6 concentration in the cell culture medium after PEP-inhibitor treatment, the basal IL-6 concentration of the cell culture medium of untreated cell samples was set to 100%. The results of the measurement of the IL-6 concentration with PEP-inhibitor treated cells are presented as % of the untreated cell samples.

[1] = molecular target: T1, Recombinant human prolyl oligopeptidase (Homo sapiens, UniProt P48147); assay: Determination of IC50- and Ki-values of PEP-inhibitors, chromogenic substrate Cbz-Gly-L-Pro-pNA; assay type: biochemical; conditions: for Ki: 4 substrate and 7 inhibitor concentrations, competitive inhibition fit, pH 7.6, 30° C.; for IC50: substrate 0.15 mM Cbz-Gly-L-Pro-pNA, HEPES buffer pH 7.6, 30° C.
T1 construct: made in house; host or cells: E. coli
T1 sequence (P48147 1-710): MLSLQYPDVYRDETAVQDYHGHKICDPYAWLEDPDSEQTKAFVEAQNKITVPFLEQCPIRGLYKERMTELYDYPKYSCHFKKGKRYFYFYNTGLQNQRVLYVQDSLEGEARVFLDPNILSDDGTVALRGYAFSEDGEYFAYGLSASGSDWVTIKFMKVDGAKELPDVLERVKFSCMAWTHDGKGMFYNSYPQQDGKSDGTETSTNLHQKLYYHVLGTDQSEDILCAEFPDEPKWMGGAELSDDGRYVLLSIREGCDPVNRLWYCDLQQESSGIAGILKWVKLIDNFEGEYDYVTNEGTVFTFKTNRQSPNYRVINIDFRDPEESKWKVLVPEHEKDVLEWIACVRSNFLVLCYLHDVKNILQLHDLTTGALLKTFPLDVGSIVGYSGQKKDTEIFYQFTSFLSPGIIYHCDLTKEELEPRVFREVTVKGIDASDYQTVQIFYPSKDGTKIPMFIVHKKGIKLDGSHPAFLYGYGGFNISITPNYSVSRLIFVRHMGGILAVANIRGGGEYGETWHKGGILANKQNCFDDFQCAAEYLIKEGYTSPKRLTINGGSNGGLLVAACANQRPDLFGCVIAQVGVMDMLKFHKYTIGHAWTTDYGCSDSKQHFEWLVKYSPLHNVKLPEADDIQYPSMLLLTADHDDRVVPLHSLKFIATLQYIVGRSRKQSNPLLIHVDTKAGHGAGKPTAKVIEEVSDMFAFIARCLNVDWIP
Procedure: Recombinant human prolyl oligopeptidase was used for measurement. Recombinant expression was performed in E. coli under standard conditions as described elsewhere in the state of the art.
For activity measurements the chromogenic substrate Cbz-Gly-L-Pro-pNA was used in HEPES buffer pH 7.6 containing 50 mM HEPES, 200 mM NaCl, 1 mM EDTA, 1 mM DTT, 0.006% Brij35. Measurements were carried out at 30° C. Release of pNA were monitored continuously at 405 nm.
IC50 values were calculated using non-linear regression to a 4-parameter equation (Prism 4.0, GraphPad).
Calculations were performed by multiple non-linear regression analysis to the equation for competitive inhibition using GraFit 5.0 Software (Erithacus Software).

[2] = tested on: human neuroblastoma SH-SY5Y cells; assay: β-Amyloid ELISA, secreted β-amyloid peptides in conditioned medium; assay type: cell-based; conditions: Aβ 1-42 (FIG. 2), inhibitor 20 μM, 24 hours, untreated = 100%, read-out: Extracellular Aβ-concentration, % of control
Procedure: The human glioma cell line, U-343 and the human neuroblastoma cell line, SH-SY5Y were maintained in Dulbecco's modified Eagle's medium (DMEM) containing 10% fetal bovine serum (Gibco BRL, Karlsruhe, Germany) and incubated at 37° C. in a 5% CO2 atmosphere. Culture media contained in general 60 μg/ml gentamycin (Gibco BRL, Karlsruhe, Germany).
To quantify intracellular and extracellular concentrations of β-amyloid peptides, 1-40 and 142, U-343 and SH-SY5Y cells were cultured in 6 well plates (1.5×10^6 cells/well) and treated with specific PEP inhibitors (20 μM each) for 24 hours. For quantitation of secreted β-amyloid peptides the conditioned medium was collected and concentrated by lyophylisation. Likewise, after determination of the cell numbers/well (casy cell counter I, Schärfe System, Reutlingen, Germany), cells were lyzed with cell extraction buffer (Biosource, Solingen, Germany) according to the manufacturer's protocol. The protein concentration was determined by the method of Bradford (1976). Aliquots of 100 μl were used to quantify β-amyloid peptides 1-40 and 1-42 in quadruplicate by ELISA, (IBL, Hamburg, Germany) following the manufacturer's instructions. All obtained intracellular and extracellular concentrations were normalized to cell numbers and protein concentration, respectively.
For the calculation of the concentration of β-amyloid peptides 1-40 and 1-42 in the cell culture medium after PEP-inhibitor treatment, the basal concentration of β-amyloid peptides 1-40 and 1-42 in the cell culture medium of untreated cell samples was set to 100%. The results of the measurement of the concentration of β-amyloid peptides 1-40 and 1-42 with PEP-inhibitor treated cells are presented as % of the untreated cell samples.

SMILES | activity at 20 µM (human glial U-343 cells) | Ki [1] | IC50 [1] | activity at 20 µM [2]
O=C(N[C@H](Cc1ccccc1)C(=O)N1CCCC1C(=O)c1nc2ccccc2s1)OCc1ccccc1 (stereo partly drawn) [Example 1, 2-[Cbz-L-Phe-L-Pro]Benzothiazole] | 14.3% | 0.057 nM | 6 nM | 447%
C[C@@H](NC(=O)OCc1ccccc1)C(=O)N1CCC[C@H]1C(=O)c1nc2ccccc2s1 [Example 2, 2-[Cbz-L-Ala-L-Pro]Benzothiazole] | 20.1% | 0.033 nM | 0.12 nM | 123%
C[C@H](NC(=O)[C@@H](Cc1ccccc1)NC(=O)OCc1ccccc1)C(=O)c1nc2ccccc2s1 [Example 3, 2-[Cbz-L-Phe-L-Ala]Benzothiazole] | 35.2% | – | 1400 nM | 546%
O=C(N[C@@H](Cc1ccccc1)C(=O)N1CCC[C@H]1C(=O)c1nccs1)OCc1ccccc1 [Example 4, 2-[Cbz-L-Phe-L-Pro]Thiazole] | 14.6% | 6.8 nM | 15 nM | 519%
N=C(N)NCCC[C@H](NC(=O)OCc1ccccc1)C(=O)N1CCC[C@H]1C(=O)c1nc2ccccc2s1 [Example 5, 2-[Cbz-L-Arg-L-Pro]Benzothiazole] | 109% | 3.2 nM | 5.4 nM | 94%
O=C(O)C[C@H](NC(=O)OCc1ccccc1)C(=O)N1CCC[C@H]1C(=O)c1nc2ccccc2s1 [Example 6, 2-[Cbz-L-Asp-L-Pro]Benzothiazole] | 58% | 12 nM | 17 nM | 96.2%
C=CCOC(=O)N[C@@H](Cc1ccccc1)C(=O)N1CCC[C@H]1C(=O)c1nc2ccccc2s1 [Example 7, 2-[Aloc-L-Phe-L-Pro]Benzothiazole] | 17% | 8.2 nM | 9.7 nM | 528%
NCCCC[C@H](NC(=O)OCc1ccccc1)C(=O)N1CCC[C@H]1C(=O)c1nc2ccccc2s1 [Example 8, 2-[Cbz-L-Lys-L-Pro]Benzothiazole] | 160% | 0.038 nM | 2 nM | 87.5%
CC(C)(C)OC(=O)N[C@@H](Cc1ccccc1)C(=O)N1CCC[C@H]1C(=O)c1nc2ccccc2s1 [Example 9, 2-[Boc-L-Phe-L-Pro]Benzothiazole] | 33.1% | 6 nM | 29 nM | 368%
C[C@H](NC(=O)OCc1ccccc1)C(=O)N1CCC[C@H]1C(=O)c1nccs1 [Example 10, 2-[Cbz-L-Ala-L-Pro]Thiazole] | 66% | 2.6 nM | 4.3 nM | 157%
O=C(N[C@@H](Cc1ccccc1)C(=O)N1CCC[C@H]1C(=O)c1ccc[nH]1)OCc1ccccc1 [Example 11] | 52.1% | 2.9 nM | 7600 nM | 340%
